The text below walks through data of patent US8067424B2, “Selective inhibitors for cyclin-dependent kinases” (Emory University, priority 2007, dated 2011).

One assay deals with T1, PKD1 (Homo sapiens, UniProt Q15139).
T1 sequence (Q15139 1-912): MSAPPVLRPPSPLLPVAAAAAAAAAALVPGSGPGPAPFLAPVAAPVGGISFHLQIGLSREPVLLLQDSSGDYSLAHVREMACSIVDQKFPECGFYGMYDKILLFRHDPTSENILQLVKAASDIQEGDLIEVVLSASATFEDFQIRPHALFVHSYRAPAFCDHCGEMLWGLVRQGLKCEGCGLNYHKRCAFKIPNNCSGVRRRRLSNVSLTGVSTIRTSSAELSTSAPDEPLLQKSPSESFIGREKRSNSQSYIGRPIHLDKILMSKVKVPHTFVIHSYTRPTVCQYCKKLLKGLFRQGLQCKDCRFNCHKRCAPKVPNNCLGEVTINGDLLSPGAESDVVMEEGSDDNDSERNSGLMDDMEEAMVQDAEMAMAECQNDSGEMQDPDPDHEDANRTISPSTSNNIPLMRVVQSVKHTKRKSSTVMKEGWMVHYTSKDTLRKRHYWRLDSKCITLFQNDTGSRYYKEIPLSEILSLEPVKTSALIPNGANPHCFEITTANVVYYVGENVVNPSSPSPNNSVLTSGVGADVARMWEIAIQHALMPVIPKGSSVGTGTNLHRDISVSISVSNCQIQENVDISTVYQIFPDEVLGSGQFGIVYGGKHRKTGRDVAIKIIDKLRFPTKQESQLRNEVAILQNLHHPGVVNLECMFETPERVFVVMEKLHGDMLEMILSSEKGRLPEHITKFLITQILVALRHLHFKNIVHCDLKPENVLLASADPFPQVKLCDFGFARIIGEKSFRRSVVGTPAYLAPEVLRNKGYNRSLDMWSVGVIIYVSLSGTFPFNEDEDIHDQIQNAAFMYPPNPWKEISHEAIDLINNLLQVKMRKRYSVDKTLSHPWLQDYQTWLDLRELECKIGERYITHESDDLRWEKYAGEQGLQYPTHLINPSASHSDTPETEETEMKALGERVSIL
As to the kind of experiment: Kinase screen: PKD1 assay. Format: biochemical. The procedure:
(§1) Generally, the same procedure was used for all assays. Since the total assay volume was 25.5 microliters, 0.5 microliters of inhibitors at 51× assay concentration were added to the plates before any other addition.
(§2) The basic procedure was to add 0.5 microliters inhibitor/control in DMSO to plate. Fifteen microliters of enzyme/substrate/buffer mix were added and incubated for 5 min. Ten microliters MgATP at the relevant concentration were added and incubated for 30 min. The assay was stopped by adding 5 microliters of 3% orthophosphoric acid. The assay was transferred to a p81 filter plate and read in a scintillation counter of 30 sec/well. Note that this assay procedure was not followed for MKK1, which instead involved a two-step assay, and PKC alpha, which required the addition of lipid vesicles.
PKD1 assay: PKD1 (5-20 mU diluted in 50 mM Tris pH 7.5, 0.1 mM EGTA, 0.1% b-mercaptoethanol, 1 mg/ml BSA) was assayed substrate peptide ([…]) (SEQ ID NO: 3) in a final volume of 25.5 μl containing 50 mM Tris pH 7.5, 0.05% b-mercaptoethanol, 30 μM substrate peptide, 10 mM magnesium acetate and 0.05 mM [33P-g-ATP] (50-1000 cpm/pmole) and incubated for 30 min at room temperature. Assays were stopped by addition of 5 μl of 0.5 M (3%) orthophosphoric acid and then harvested onto P81 Unifilter plates with a wash buffer of 50 mM orthophosphoric acid.

Another assay has as its target T2, ERK8 (Homo sapiens, UniProt Q8TD08).
T2 sequence (Q8TD08 1-544): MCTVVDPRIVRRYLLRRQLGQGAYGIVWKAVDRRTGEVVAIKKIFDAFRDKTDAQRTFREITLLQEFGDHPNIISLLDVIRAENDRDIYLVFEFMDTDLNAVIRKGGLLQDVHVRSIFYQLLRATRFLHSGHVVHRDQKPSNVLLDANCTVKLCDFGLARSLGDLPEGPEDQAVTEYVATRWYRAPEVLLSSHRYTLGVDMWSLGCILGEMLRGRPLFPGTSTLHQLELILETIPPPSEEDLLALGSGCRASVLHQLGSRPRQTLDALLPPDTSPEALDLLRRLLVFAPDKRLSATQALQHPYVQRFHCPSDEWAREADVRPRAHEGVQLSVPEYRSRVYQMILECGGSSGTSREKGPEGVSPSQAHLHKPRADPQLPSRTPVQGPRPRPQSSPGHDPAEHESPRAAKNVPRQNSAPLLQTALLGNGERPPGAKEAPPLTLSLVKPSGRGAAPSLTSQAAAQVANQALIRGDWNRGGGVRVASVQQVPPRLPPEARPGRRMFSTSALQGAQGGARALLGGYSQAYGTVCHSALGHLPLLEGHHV
In words: Kinase screen: ERK8 assay. Format: biochemical. The procedure:
as §1, §2
ERK8 assay: 5-20 mU of ERK8 (diluted in 50 mM Tris (pH 7.5), 0.1 mM EGTA, 1 mg/ml BSA, 0.1%, b-Mercaptoethanol) was assayed against MBP in a final volume of 25.5 μl containing 50 mM Tris (pH 7.5), 0.1 mM EGTA, 0.1%, b-Mercaptoethanol, 0.33 mg/ml MBP, 10 mM magnesium acetate and 0.005 mM [33P-g-ATP] (500-1000 cpm/pmole) and incubated for 30 mins at room temperature. Assays were stopped by addition of 5 μl of 0.5M (3%) orthophosphoric acid. Assays were harvested onto P81 Unifilter plates using a wash buffer of 50 mM orthophosphoric acid.

A further assay relates to MCF-7 cell line. As to the kind of experiment: cells. Format: cell-based. The conditions noted are these: Homo sapiens; for IC (total growth inhibition): read-out: TGI.
The mark [1] stands for this setting: MCF7, 24 h, MCF-7, SRB assay, 24 hours.
The mark [2] stands for this setting: MCF7, MCF-7, SRB assay, 24 hours, mean of three experiments, read-out: IC50.
[3] abbreviates: 10 micromolar compound, read-out: mean activity remaining (as a percentage of the original activity), PKD1.
The mark [4] stands for this setting: 10 micromolar compound, read-out: mean activity remaining (as a percentage of the original activity), ERK8.

pIC50: −log10 of the molar value. Like-named read-outs stand apart in the source and are kept apart here.

Turning to `CC(C)c1cnn2c(NCc3ccccc3F)cc(NCCCCCN)nc12` [ICEC-0232], the “mean activity remaining (as a percentage of the original activity), PKD1” value at PKD1 (10 micromolar compound) was 32%. The “mean activity remaining (as a percentage of the original activity), ERK8” value on ERK8 (10 micromolar compound) is 23%.

Regarding `CC[C@H](CO)Nc1cc(NCc2ccccc2)n2ncc(C(C)C)c2n1` [ICEC0067], the IC (total growth inhibition) in the assay on MCF-7 cell line (setting [1]) is 13 µM. In the assay on MCF-7 cell line (setting [2]), the negative logarithm of the IC50 (pIC50) was < 4.00. In addition, the remaining activity at 10 µM is 87% at PKD1 (setting [3]) and 23% at ERK8 (setting [4]).

Take `CC(C)c1cnn2c(NCc3ccccc3)cc(NCCCCCCCN)nc12` [BS-181]: the remaining activity at 10 µM came to 53% at PKD1 (PKD1, 10 μM, read-out: Mean Remaining Enzyme Activity (%)) and 32% at ERK8 (ERK8, 10 μM, read-out: Mean Remaining Enzyme Activity (%)).

Regarding `C=C[C@H](CO)Nc1cc(NCc2ccccc2)n2ncc(C(C)C)c2n1` [ICEC0065], the LC50 (concentration causing 50% net cell kill) in the assay on MCF-7 cell line (setting [1]) is 8.5 µM. In the assay on MCF-7 cell line (setting [1]), the IC (total growth inhibition) was found to be 12 µM. In the assay on MCF-7 cell line (setting [2]), the negative-log IC50 (pIC50) is < 4.00. Besides, the remaining activity at 10 µM is 88% at PKD1 (setting [3]) and 28% on ERK8 (setting [4]).

For the compound `CC(C)c1cnn2c(NCc3ccccc3)cc(N[C@@H](CO)[C@H](O)CO)nc12` [ICEC0318, (3S)-3-(7-(Benzylamino)-3-isopropylpyrazolo[1,5-a]pyrimidin-5-ylamino)butane-1,2,4-triol], the pIC50 in the assay with MCF-7 cell line (MCF7, 24 h) was > 5.70. For the same compound, in the assay on MCF-7 cell line (setting [1]), the IC (total growth inhibition) was < 2 µM. Also, the remaining activity at 10 µM on PKD1 (setting [3]) amounted to 97%; on ERK8 (setting [4]), 26%.

In general, pIC50 refers to the IC50 on a negative log10 scale, so that one unit is a factor of ten. One may read the remaining activity as the signal under treatment as a percentage of the control signal.
